US20210161837A1, “METHODS FOR TREATING CANCER WITH RORGAMMA INHIBITORS” (The Regents of the University of California, priority 2016, published 2021)

Assays:
MDA-MB468 cells = assay: Cell viability (CellTiter-GLO), 4 days, TNBC cells; type: cell-based, human
Method: (§1) The “No.” label for each compound corresponds to the “Structure No.” in Table 2 (e.g., “No. 36”=“Structure No. 36” in Table 2). The cell viability curves were measured by CellTiter-GLO.
(§2) For cell viability, cells were seeded in 96-well plates at 1500-2500 cells per well (optimum density for growth) in a total volume of 100 μl media. Serially diluted compounds in 100 μl of media were added to the cells 12 hours later. After 4 days of incubation, Cell-Titer GLO reagents (Promega) were added and luminescence was measured on GLOMAX microplate luminometer (Promega), according to the manufacturer's instructions. All experimental points were set up as sextuplicate as biological replication and the entire experiments were repeated three times. The data are presented as percentage of viable cells with vehicle treated cells set as 100. The estimated in vitro IC50 values were calculated using GraphPad Prism 6 software.

HCC70 cells = assay: Cell viability (CellTiter-GLO), 4 days, TNBC cells; type: cell-based, human
Method: as §1, §2

[1] = tested on: prostate cancer C4-2B cells; assay: Cell viability (Cell-Titer GLO), 4 days, prostate cancer cells; type: cell-based, human
Method: The “No.” label for each compound corresponds to the “Structure No.” in Table 2 (e.g., “No. 36”=“Structure No. 36” in Table 2). Experiments were independently performed three times.
as §2, with “growth, depending on the specific cell line)” for “growth)”

[2] = tested on: gastric cancer KATO III cells; assay: Cell viability (Cell-Titer GLO), 4 days, gastric cancer cells; type: cell-based, human
Method: Experiments were independently performed three times.
as §2, with “growth, depending on the specific cell line)” for “growth)”, “100.” for “100. The estimated in vitro IC50 values were calculated using GraphPad Prism 6 software.”

MCF-7-TamR = assay: Growth and survival of tamoxifen-resistant breast cancer cells; type: cell-based, human; conditions: MCF-7-TamR, 1 μM of 4(OH)-tamoxifen alone
[3] = tested on: SUM159 orthotopic xenograft tumors; assay: TNBC SUM159 orthotopic xenograft tumor growth in SCID mice; type: in vivo, mouse; conditions: 5 mg/kg, i.p., 5 times per week, 45 days
Method: Orthotopic xenograft tumor models and chemical compound treatments: Four-week-old female SCID C.B17 mice (for TNBC SUM159 cell lines) were purchased from Harlan Inc. For establishing tumors, 2×10^6 cells were suspended in total of 100 μL PBS/Matrigel (1:1) and implanted orthotopically into the 4th inguinal mammary fat pads at both sides. Animal group size of six or more was estimated to have a high statistical power, based on power calculation (www.biomath.info/pgwer/) and 20 previous studies involving the same xenograft models. When the tumor volume was approximately 50 mm^3, the mice were randomized and then treated intraperitoneally (i.p.) with 100 μl of vehicle or RORγ inhibitors F18/No. 37, 5 mg/kg; GSK805, 5 mg/kg; GNE3500, 5 mg/kg. (in a formulation of 15% Cremophor EL, Calbiochem, 82.5% PBS, and 2.5% DMSO) for five times per week. Tumor growth was monitored by calipers with volume calculated using the equation: π/6 (length×width^2). Mouse body weight during the course of the study was also monitored. At the end of the studies, mice were killed and tumors were dissected and weighed.

Row | SMILES | inhibition of growth and survival (MDA-MB468 cells) | inhibition of growth and survival (HCC70 cells) | inhibition of growth and survival [1] | inhibition of growth and survival [2] | growth inhibitory effect, tamoxifen alone (MCF-7-TamR) | orthotopic tumor growth inhibition [3]
1 | O=C(CCC(F)(F)F)Nc1ccc(-c2ccc(C(O)(C(F)(F)F)C(F)(F)F)cc2F)cc1 [F63, 4,4,4-trifluoro-N-(2′-fluoro-4′-(1,1,1,3,3,3-hexafluoro-2-hydroxypropan-2-yl)-[1,1′-biphenyl]-4-yl)butanamide] | strongly inhibited the growth and survival | strongly inhibited the growth and survival | strongly inhibited the growth and survival |  |  | 
2 | COC(=O)CCCC(=O)Nc1ccc(-c2ccc(C(O)(C(F)(F)F)C(F)(F)F)cc2F)cc1 [F68, Methyl-5-((2′-fluoro-4′-(1,1,1,3,3,3-hexafluoro-2-hydroxypropan-2-yl)-[1,1′-biphenyl]-4-yl)amino)-5-oxopentanoate] | strongly inhibited the growth and survival | strongly inhibited the growth and survival | strongly inhibited the growth and survival |  |  | 
3 | CCCCCCC(=O)Nc1ccc(-c2ccc(C(O)(C(F)(F)F)C(F)(F)F)cc2F)cc1 [F64, N-(2′-fluoro-4′-(1,1,1,3,3,3-hexafluoro-2-hydroxypropan-2-yl)-[1,1′-biphenyl]-4-yl)heptanamide] | strongly inhibited the growth and survival | strongly inhibited the growth and survival | strongly inhibited the growth and survival |  |  | 
4 | OC(c1ccc(-c2ccc(CN3CCN(Cc4ccncc4)CC3)cc2)c(F)c1)(C(F)(F)F)C(F)(F)F [SR2211] |  |  |  | strongly inhibited the growth and survival |  | 
5 | O=C(CCc1ccccc1)Nc1ccc(-c2ccc(C(O)(C(F)(F)F)C(F)(F)F)cc2F)cc1 [F62, N-(2′-fluoro-4′-(1,1,1,3,3,3-hexafluoro-2-hydroxypropan-2-yl)-[1,1′-biphenyl]-4-yl)-3-phenylpropanamide] | strongly inhibited the growth and survival | strongly inhibited the growth and survival | strongly inhibited the growth and survival |  |  | 
6 | O=C(CCCC1CCCCC1)Nc1ccc(-c2ccc(C(O)(C(F)(F)F)C(F)(F)F)cc2F)cc1 [F65, 4-cyclohexyl-N-(2′-fluoro-4′-(1,1,1,3,3,3-hexafluoro-2-hydroxypropan-2-yl)-[1,1′-biphenyl]-4-yl)butanamide] | strongly inhibited the growth and survival | strongly inhibited the growth and survival | strongly inhibited the growth and survival |  |  | 
7 | CC/C(=C(\c1ccccc1)c1ccc(OCCN(C)C)cc1)c1ccccc1 [tamoxifen, reference compound] |  |  |  |  | did not show any inhibitory effect | 
8 | CCS(=O)(=O)c1ccc(CC(=O)Nc2cc(Cl)c(-c3ccccc3OC(F)(F)F)c(Cl)c2)cc1 [GSK805, reference compound] |  |  |  | strongly inhibited the growth and survival |  | Strong tumor growth inhibition
9 | CC(=O)N1CCN(c2ccc(CN3[C@@H](C)CC[C@H](c4ccccc4)S3(=O)=O)c(F)c2)CC1 [GNE3500] |  |  |  | strongly inhibited the growth and survival |  | 
10 | O=C(Cc1ccc([N+](=O)[O-])cc1)Nc1ccc(-c2ccc(C(O)(C(F)(F)F)C(F)(F)F)cc2F)cc1 [F17, N-(2′-fluoro-4′-(1,1,1,3,3,3-hexafluoro-2-hydroxypropan-2-yl)-[1,1′-biphenyl]-4-yl)-2-(4-nitrophenyl)acetamide] | strongly inhibited the growth and survival | strongly inhibited the growth and survival | strongly inhibited the growth and survival |  |  | 
